From patent publication US8937078B2, “Quinazolinones as prolyl hydroxylase inhibitors” (Janssen Pharmaceutica NV, priority 2009, dated 2015)

Legend:
Hep-3B cells = test: Cellular assay: erythropoietin secretion in Hep-3B cells; type: cell-based, human; conditions: Homo sapiens, Hep3B, 100 μM compound, 24 hours, percent of EPO secretion relative to assay control compound 7-[(4-Chloro-phenyl)-(5-methyl-isoxazol-3-ylamino)-methyl]-quinolin-8-ol, read-out: Cellular % EPO Stimulation
How it was run: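 Hep-3B cells in DMEM with 10% FBS, treated 24 h after plating with compounds at 100 μM final for a further 24 h. Secreted EPO in supernatant measured by MSD electrochemiluminescence sandwich immunoassay with anti-EPO detection antibody.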

human PHD2 (PHD2181-417) = molecular target: T1, human PHD2 (PHD2181-417) (Homo sapiens, UniProt Q9GZT9); test: PHD enzymatic assay ([14C]-succinic acid production); type: biochemical; conditions: PHD2181-417, HIF-1α peptide 10 μM, average of results; read-out: Enzyme pIC50 (converted)
T1 construct: Smt (SUMO) tag (cleaved yes); made in house; host or cells: E. coli BL21 (pBAD vector)
T1 sequence (Q9GZT9 181-417): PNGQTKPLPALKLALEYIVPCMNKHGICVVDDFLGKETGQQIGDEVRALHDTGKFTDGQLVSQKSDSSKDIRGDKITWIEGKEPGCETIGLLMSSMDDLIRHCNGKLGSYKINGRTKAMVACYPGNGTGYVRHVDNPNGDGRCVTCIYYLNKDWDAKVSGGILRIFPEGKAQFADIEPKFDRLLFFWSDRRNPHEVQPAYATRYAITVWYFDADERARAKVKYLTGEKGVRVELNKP
How it was run: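 Activity measured as [14C]-succinic acid formed from [5-14C]-2-oxoglutarate over 10 minutes, with peptide substrate at 10 μM, in Tris-HCl pH 7.5 buffer containing catalase, DTT and ascorbate. Unreacted oxoglutarate removed by DNP derivatisation; supernatant beta-counted.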

| SMILES | IC50 (human PHD2 (PHD2181-417)) | Emax at 100 µM (Hep-3B cells) |
| --- | --- | --- |
| O=C(O)c1cnn(-c2nc3ccc(Oc4cc(Cl)ccc4Cl)cc3c(=O)[nH]2)c1 [Example 40, 1-[6-(2,5-Dichloro-phenoxy)-4-oxo-3,4-dihydro-quinazolin-2-yl]-1H-pyrazole-4-carboxylic acid] | 25.1 nM | 77% |
| O=C(O)c1cnn(-c2nc3c(F)ccc(F)c3c(=O)[nH]2)c1 [Example 116, 1-(5,8-Difluoro-4-oxo-3,4-dihydro-quinazolin-2-yl)-1H-pyrazole-4-carboxylic acid] | 200 nM | 17% |
| CC(C)c1ccc2nc(-n3cc(C(=O)O)cn3)[nH]c(=O)c2c1 [Example 119, 1-(6-Isopropyl-4-oxo-3,4-dihydro-quinazolin-2-yl)-1H-pyrazole-4-carboxylic acid] | 15.8 nM | 115% |
| O=C(O)c1cnn(-c2nc(=O)c3cc(Sc4ccccc4)c(Cl)cc3[nH]2)c1 [Example 25, 1-(7-Chloro-4-oxo-6-phenylsulfanyl-1,4-dihydro-quinazolin-2-yl)-1H-pyrazole-4-carboxylic acid] | 39.8 nM | 68% |
| Cc1cccc(Oc2ccc3nc(-n4cc(C(=O)O)cn4)[nH]c(=O)c3c2)c1 [Example 36, 1-(4-Oxo-6-m-tolyloxy-3,4-dihydro-quinazolin-2-yl)-1H-pyrazole-4-carboxylic acid] | 39.8 nM | 22% |
| COc1ccc2c(=O)[nH]c(-n3cc(C(=O)O)cn3)nc2c1 [Example 135, 1-(7-Methoxy-4-oxo-3,4-dihydro-quinazolin-2-yl)-1H-pyrazole-4-carboxylic acid] | 79.4 nM | 17% |
| O=C(O)c1cnn(-c2nc3ccc(N4CCCC4)cc3c(=O)[nH]2)c1 [Example 123, 1-(4-Oxo-6-pyrrolidin-1-yl-3,4-dihydro-quinazolin-2-yl)-1H-pyrazole-4-carboxylic acid] | 39.8 nM | 17% |
| CC(C)(C)c1cc(Oc2ccc3nc(-n4cc(C(=O)O)cn4)[nH]c(=O)c3c2)cc(C(C)(C)C)c1 [Example 35, 1-[6-(3,5-Di-tert-butyl-phenoxy)-4-oxo-3,4-dihydro-quinazolin-2-yl]-1H-pyrazole-4-carboxylic acid] | 31.6 nM | 8% |
| O=C(O)c1cnn(-c2nc3c(OC(F)(F)F)cccc3c(=O)[nH]2)c1 [Example 117, 1-(4-Oxo-8-trifluoromethoxy-3,4-dihydro-quinazolin-2-yl)-1H-pyrazole-4-carboxylic acid] | 794 nM | 12% |
| O=C(O)c1cnn(-c2nc3cc(Cl)c(Oc4cccc5c4CCCC5)cc3c(=O)[nH]2)c1 [Example 55, 1-[7-Chloro-4-oxo-6-(5,6,7,8-tetrahydro-naphthalen-1-yloxy)-3,4-dihydro-quinazolin-2-yl]-1H-pyrazole-4-carboxylic acid] | 31.6 nM | 25% |
| CCCc1ccc2nc(-n3cc(C(=O)O)cn3)[nH]c(=O)c2c1 [Example 129, 1-(4-Oxo-6-propyl-3,4-dihydro-quinazolin-2-yl)-1H-pyrazole-4-carboxylic acid] | 31.6 nM | 94% |
| O=C(O)c1cnn(-c2nc3ccc(Oc4ccccc4)cc3c(=O)[nH]2)c1 [Example 20, 1-(4-Oxo-6-phenoxy-3,4-dihydro-quinazolin-2-yl)-1H-pyrazole-4-carboxylic acid] | 25.1 nM | 104% |
| O=C(O)c1cnn(-c2nc3cc(Br)ccc3c(=O)[nH]2)c1 [Example 134, 1-(7-Bromo-4-oxo-3,4-dihydro-quinazolin-2-yl)-1H-pyrazole-4-carboxylic acid] | 50.1 nM | 18% |
| O=C(O)c1cnn(-c2nc3c(F)cccc3c(=O)[nH]2)c1 [Example 118, 1-(8-Fluoro-4-oxo-3,4-dihydro-quinazolin-2-yl)-1H-pyrazole-4-carboxylic acid] | 79.4 nM | 16% |
| O=C(O)c1cnn(-c2nc3c(Sc4ccccc4)cccc3c(=O)[nH]2)c1 [Example 113, 1-(4-Oxo-8-phenylsulfanyl-3,4-dihydro-quinazolin-2-yl)-1H-pyrazole-4-carboxylic acid] | 200 nM | 17% |
| CCc1ccc2nc(-n3cc(C(=O)O)cn3)[nH]c(=O)c2c1 [Example 128, 1-(6-Ethyl-4-oxo-3,4-dihydro-quinazolin-2-yl)-1H-pyrazole-4-carboxylic acid] | 39.8 nM | 53% |
| O=C(O)c1cnn(-c2nc3c(F)cc(Br)cc3c(=O)[nH]2)c1 [Example 130, 1-(6-Bromo-8-fluoro-4-oxo-3,4-dihydro-quinazolin-2-yl)-1H-pyrazole-4-carboxylic acid] | 79.4 nM | 12% |
| Cc1ccc(Oc2cc3c(=O)[nH]c(-n4cc(C(=O)O)cn4)nc3cc2F)cc1C [Example 88, 1-[6-(3,4-dimethyl-phenoxy)-7-fluoro-4-oxo-3,4-dihydro-quinazolin-2-yl]-1H-pyrazole-4-carboxylic acid] | 15.8 nM | 95% |
| O=C(O)c1cnn(-c2nc3cc(F)ccc3c(=O)[nH]2)c1 [Example 133, 1-(7-Fluoro-4-oxo-3,4-dihydro-quinazolin-2-yl)-1H-pyrazole-4-carboxylic acid] | 39.8 nM | 10% |
| O=C(O)c1cnn(-c2nc3c(Br)cccc3c(=O)[nH]2)c1 [Example 11, 1-(8-Bromo-4-oxo-3,4-dihydro-quinazolin-2-yl)-1H-pyrazole-4-carboxylic acid] | 158 nM | 40% |
| O=C(O)c1cnn(-c2nc3ccc(Oc4cc(F)cc(C(F)(F)F)c4)cc3c(=O)[nH]2)c1 [Example 97, 1-[6-(3-fluoro-5-trifluoromethyl-phenoxy)-4-oxo-3,4-dihydro-quinazolin-2-yl]-1H-pyrazole-4-carboxylic acid] | 20 nM | 37% |

Now from value to compound, other results behind:

| IC50 (human PHD2 (PHD2181-417)) | SMILES | Emax at 100 µM (Hep-3B cells) |
| --- | --- | --- |
| 39.8 nM | Cc1cccc(C)c1NC(=O)c1ccc2nc(-n3cc(C(=O)O)cn3)[nH]c(=O)c2c1 [Example 163, 1-[6-(2,6-Dimethyl-phenylcarbamoyl)-4-oxo-3,4-dihydro-quinazolin-2-yl]-1H-pyrazole-4-carboxylic acid] | 14% |
| 39.8 nM | O=C(O)c1cnn(-c2nc3ccc(S(=O)(=O)N4CCCC4)cc3c(=O)[nH]2)c1 [Example 161, 1-[4-Oxo-6-(pyrrolidine-1-sulfonyl)-3,4-dihydro-quinazolin-2-yl]-1H-pyrazole-4-carboxylic acid] | 17% |
| 31.6 nM | O=C(O)c1cnn(-c2nc3cc4c(cc3c(=O)[nH]2)CCCC4)c1 [Example 143, 1-(4-Oxo-3,4,6,7,8,9-hexahydro-benzo[g]quinazolin-2-yl)-1H-pyrazole-4-carboxylic acid] | 75% |
| 25.1 nM | O=C(O)c1cnn(-c2nc3cc(Cl)c(SC(F)(F)F)cc3c(=O)[nH]2)c1 [Example 159, 1-(7-Chloro-4-oxo-6-trifluoromethylsulfanyl-3,4-dihydro-quinazolin-2-yl)-1H-pyrazole-4-carboxylic acid] | 16% |
| 39.8 nM | O=C(O)c1cnn(-c2nc3ccc(Cl)cc3c(=O)[nH]2)c1 [Example 153, 1-(6-Chloro-4-oxo-3,4-dihydro-quinazolin-2-yl)-1H-pyrazole-4-carboxylic acid] | 22% |
| 25.1 nM | O=C(O)c1cnn(-c2nc3ccc(NC(=O)c4ccccc4)cc3c(=O)[nH]2)c1 [Example 165, 1-(6-Benzoylamino-4-oxo-3,4-dihydro-quinazolin-2-yl)-1H-pyrazole-4-carboxylic acid] | 19% |
| 100 nM | O=C(O)c1cnn(-c2nc3cc(-c4ccccc4Cl)ccc3c(=O)[nH]2)c1 [Example 185, 1-[7-(2-Chloro-phenyl)-4-oxo-3,4-dihydro-quinazolin-2-yl]-1H-pyrazole-4-carboxylic acid] | 15% |
| 20 nM | O=C(O)c1cnn(-c2nc3ccc(-c4ccc(F)cc4)cc3c(=O)[nH]2)c1 [Example 197, 1-[6-(4-Fluoro-phenyl)-4-oxo-3,4-dihydro-quinazolin-2-yl]-1H-pyrazole-4-carboxylic acid] | 108% |
| 31.6 nM | CCc1ccccc1-c1ccc2nc(-n3cc(C(=O)O)cn3)[nH]c(=O)c2c1 [Example 203, 1-[6-(2-Ethyl-phenyl)-4-oxo-3,4-dihydro-quinazolin-2-yl]-1H-pyrazole-4-carboxylic acid] | 77% |
| 631 nM | CN(C)c1cccc2nc(-n3cc(C(=O)O)cn3)[nH]c(=O)c12 [Example 151, 1-(5-Dimethylamino-4-oxo-3,4-dihydro-quinazolin-2-yl)-1H-pyrazole-4-carboxylic acid] | 11% |
| 501 nM | O=C(O)c1cnn(-c2nc3c4c(ccc3c(=O)[nH]2)CCC4)c1 [Example 141, 1-(6-Oxo-2,3,6,7-tetrahydro-1H-7,9-diaza-cyclopenta[a]naphthalen-8-yl)-1H-pyrazole-4-carboxylic acid] | 25% |
| 25.1 nM | O=C(O)c1cnn(-c2nc3ccc([N+](=O)[O-])cc3c(=O)[nH]2)c1 [Example 164, 1-(6-Nitro-4-oxo-3,4-dihydro-quinazolin-2-yl)-1H-pyrazole-4-carboxylic acid] | 17% |
| 31.6 nM | O=C(O)c1cnn(-c2nc3ccc(-c4cccc(Cl)c4)cc3c(=O)[nH]2)c1 [Example 193, 1-[6-(3-Chloro-phenyl)-4-oxo-3,4-dihydro-quinazolin-2-yl]-1H-pyrazole-4-carboxylic acid] | 141% |
